From ChEMBL document CHEMBL1201862, “PubChem BioAssay data set” (2004)
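How tested: cells in 96-well plates exposed to compound for 48 hours at five concentrations. GI50: concentration for 50% inhibition of growth.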 Active and inactive are the calls of the source. Rule as the data show it: active = GI50 up to about 1.1 µM and inactive = higher.

Legend:
Assay in all cases: growth of human tumour cells (NCI), 48 h
SK-MEL-2 = tested on: SK-MEL-2
PC-3 = tested on: PC-3
SR = tested on: SR
MCF7 = tested on: MCF7
RXF 393 = tested on: RXF 393
T47D = tested on: T47D
SF-539 = tested on: SF-539
LOX IMVI = tested on: LOX IMVI
KM12 = tested on: KM12
UACC-62 = tested on: UACC-62
UO-31 = tested on: UO-31
HCT-15 = tested on: HCT-15
OVCAR-8 = tested on: OVCAR-8
MDA-MB-231 = tested on: MDA-MB-231
TK-10 = tested on: TK-10
M14 = tested on: M14
UACC-257 = tested on: UACC-257
RPMI-8226 = tested on: RPMI-8226
SK-MEL-5 = tested on: SK-MEL-5
MDA-N = tested on: MDA-N
NCI-H23 = tested on: NCI-H23
HOP-92 = tested on: HOP-92
K562 = tested on: K562
CCRF-CEM = tested on: CCRF-CEM
NCI-H226 = tested on: NCI-H226
OVCAR-5 = tested on: OVCAR-5
HCT-116 = tested on: HCT-116
NCI/ADR-RES = tested on: NCI/ADR-RES
MDA-MB-435 = tested on: MDA-MB-435
NCI-H460 = tested on: NCI-H460
OVCAR-3 = tested on: OVCAR-3
COLO 205 = tested on: COLO 205
A498 = tested on: A498
CAKI-1 = tested on: CAKI-1
Hs-578T = tested on: Hs-578T
SF-295 = tested on: SF-295
OVCAR-4 = tested on: OVCAR-4
HCC 2998 = tested on: HCC 2998
IGROV-1 = tested on: IGROV-1
ACHN = tested on: ACHN
HT-29 = tested on: HT-29
SN12C = tested on: SN12C
SK-MEL-28 = tested on: SK-MEL-28
HL-60 = tested on: HL-60
SF-268 = tested on: SF-268
DU-145 = tested on: DU-145
Malme-3M = tested on: Malme-3M
HOP-62 = tested on: HOP-62
MOLT-4 = tested on: MOLT-4
SNB-75 = tested on: SNB-75
SW-620 = tested on: SW-620
EKVX = tested on: EKVX
786-0 = tested on: 786-0
A549 = tested on: A549
SNB-19 = tested on: SNB-19
NCI-H522 = tested on: NCI-H522
U-251 = tested on: U-251

COCn1cc(C2=C(C)C(=O)C(C)=C(C)C2=O)cn1
GI50 (SK-MEL-2): > 100 µM (inactive)
GI50 (PC-3): > 100 µM (inactive)
GI50 (SR): 39.4 µM (inactive)
GI50 (MCF7): > 100 µM (inactive)
GI50 (RXF 393): > 100 µM (inactive)
GI50 (T47D): 23.6 µM (inactive)
GI50 (SF-539): > 100 µM (inactive)
GI50 (LOX IMVI): > 10 µM (inactive)
GI50 (KM12): > 100 µM (inactive)
GI50 (UACC-62): > 100 µM (inactive)
GI50 (UO-31): 57.5 µM (inactive)
GI50 (HCT-15): > 100 µM
GI50 (OVCAR-8): 21.1 µM (inactive)
GI50 (MDA-MB-231): 18.6 µM (inactive)
GI50 (TK-10): > 100 µM (inactive)
GI50 (M14): > 100 µM (inactive)
GI50 (UACC-257): 85.5 µM (inactive)
GI50 (RPMI-8226): 27.9 µM (inactive)
GI50 (SK-MEL-5): 38.1 µM (inactive)
GI50 (MDA-N): 48.6 µM (inactive)
GI50 (NCI-H23): > 100 µM (inactive)
GI50 (HOP-92): 12.7 µM (inactive)
GI50 (K562): 18.9 µM (inactive)
GI50 (CCRF-CEM): 21.9 µM (inactive)
GI50 (NCI-H226): > 100 µM (inactive)
GI50 (OVCAR-5): > 100 µM (inactive)
GI50 (HCT-116): 20 µM (inactive)
GI50 (NCI/ADR-RES): 26.2 µM (inactive)
GI50 (MDA-MB-435): 19.6 µM (inactive)
GI50 (NCI-H460): > 100 µM (inactive)
GI50 (OVCAR-3): 19.5 µM (inactive)
GI50 (COLO 205): > 100 µM (inactive)
GI50 (A498): > 100 µM (inactive)
GI50 (CAKI-1): > 100 µM (inactive)
GI50 (Hs-578T): > 100 µM (inactive)
GI50 (SF-295): > 100 µM (inactive)
GI50 (OVCAR-4): 17.7 µM (inactive)
GI50 (HCC 2998): > 100 µM (inactive)
GI50 (IGROV-1): > 100 µM (inactive)
GI50 (ACHN): 85.9 µM (inactive)
GI50 (HT-29): > 100 µM (inactive)
GI50 (SN12C): > 100 µM (inactive)
GI50 (SK-MEL-28): > 100 µM (inactive)
GI50 (HL-60): 4.6 µM (inactive)
GI50 (SF-268): 25.4 µM (inactive)
GI50 (DU-145): > 100 µM (inactive)
GI50 (Malme-3M): 99.5 µM (inactive)
GI50 (HOP-62): > 100 µM (inactive)
GI50 (MOLT-4): 14.9 µM (inactive)
GI50 (SNB-75): 11.4 µM (inactive)
GI50 (SW-620): > 100 µM (inactive)
GI50 (EKVX): 18.2 µM (inactive)
GI50 (786-0): 18 µM (inactive)
GI50 (A549): > 100 µM (inactive)
GI50 (SNB-19): > 100 µM (inactive)

CCOC(=O)C1(N)CC1
GI50 (PC-3): 71 µM (inactive)
GI50 (SR): > 100 µM (inactive)
GI50 (MCF7): > 100 µM (inactive)
GI50 (RXF 393): > 100 µM (inactive)
GI50 (T47D): 56.8 µM (inactive)
GI50 (SF-539): > 100 µM (inactive)
GI50 (LOX IMVI): > 100 µM (inactive)
GI50 (KM12): > 100 µM (inactive)
GI50 (NCI-H522): > 100 µM (inactive)
GI50 (UO-31): > 100 µM (inactive)
GI50 (HCT-15): > 100 µM
GI50 (OVCAR-8): > 100 µM (inactive)
GI50 (MDA-MB-231): > 100 µM (inactive)
GI50 (TK-10): > 100 µM (inactive)
GI50 (M14): > 100 µM (inactive)
GI50 (UACC-257): > 100 µM (inactive)
GI50 (RPMI-8226): > 100 µM (inactive)
GI50 (SK-MEL-5): > 100 µM (inactive)
GI50 (MDA-N): > 100 µM (inactive)
GI50 (NCI-H23): > 100 µM (inactive)
GI50 (HOP-92): > 100 µM (inactive)
GI50 (K562): > 100 µM (inactive)
GI50 (CCRF-CEM): > 100 µM (inactive)
GI50 (NCI-H226): > 100 µM (inactive)
GI50 (OVCAR-5): > 100 µM (inactive)
GI50 (HCT-116): > 100 µM (inactive)
GI50 (NCI/ADR-RES): > 100 µM (inactive)
GI50 (MDA-MB-435): > 100 µM (inactive)
GI50 (NCI-H460): > 100 µM (inactive)
GI50 (OVCAR-3): > 100 µM (inactive)
GI50 (A498): > 100 µM (inactive)
GI50 (CAKI-1): > 100 µM (inactive)
GI50 (U-251): > 100 µM (inactive)
GI50 (Hs-578T): > 100 µM (inactive)
GI50 (SF-295): > 100 µM (inactive)
GI50 (OVCAR-4): > 100 µM (inactive)
GI50 (HCC 2998): > 100 µM (inactive)
GI50 (IGROV-1): > 100 µM (inactive)
GI50 (ACHN): > 100 µM (inactive)
GI50 (HT-29): > 100 µM (inactive)
GI50 (SN12C): > 100 µM (inactive)
GI50 (SK-MEL-28): > 100 µM (inactive)
GI50 (HL-60): > 100 µM (inactive)
GI50 (SF-268): > 100 µM (inactive)
GI50 (DU-145): > 100 µM (inactive)
GI50 (Malme-3M): > 100 µM (inactive)
GI50 (HOP-62): > 100 µM (inactive)
GI50 (MOLT-4): > 100 µM (inactive)
GI50 (SNB-75): > 100 µM (inactive)
GI50 (SW-620): > 100 µM (inactive)
GI50 (EKVX): > 100 µM (inactive)
GI50 (786-0): > 100 µM (inactive)
GI50 (A549): > 100 µM (inactive)
GI50 (SNB-19): > 100 µM (inactive)
